Test system: 313798-341-R-J2-PDC spheroids, viability
Experiment: Anticancer human tumor 313798-341-R-J2-PDC patient-derived cervical squamous cell carcinoma cell line growth inhibition [PI3K]
Settings: spheroids with HUVEC and MSC; for viability, T/C: stronger effect = lower value
Source text: Combinatorial screen of targeted agents with the PI3K inhibitors inavolisib, alpelisib, duvelisib, and copanlisib in multi-cell type tumor spheroids
A high-throughput screen of multi-cell type tumor spheroids was designed to identify active combinations of targeted small molecules and PI3K pathway inhibitors. Complex spheroids include a stromal component modeled by human endothelial cells (HUVEC) and fibroblasts modeled by human mesenchymal stem cells (MSCs). The concentration ranges selected for each drug and investigational agent were based upon clinically achievable concentrations if the clinical Cmax of the agent was known.
Compounds. The drugs and investigational agents: inavolisib (NSC800729), alpelisib (NSC765974), duvelisib (NSC772469), copanlisib (NSC816437), ipatasertib (NSC767898), afuresertib (NSC778305), talazoparib (NSC767125), sapanisertib (NSC764658), selumetinib (NSC741078), tovorafenib (DAY101, NSC766906), vemurafenib (NSC761431), ravoxertinib (NSC781343), sotorasib (NSC818433), MRTX1133 (NSC 836407), abemaciclib (NSC 768073), palbociclib (NSC758247), venetoclax (NSC 766270), SY5609 (NSC837396), enzalutamide (NSC755605), and darolutamide (NSC825331), were obtained from the National Cancer Institute (NCI) Developmental Therapeutics Program Chemical Repository. The FDA-approved anticancer drug set is available from the NCI Developmental Therapeutics Program. […] The stock solutions were prepared in dimethyl sulfoxide (DMSO, Sigma-Aldrich, St. Louis, MO, cat. D2650) at 800-fold the tested concentration and stored at -70 degrees C prior to their use. All drugs and investigational agents were tested over a range starting from a high concentration at or near the clinical Cmax and decreasing in half-log increments. If the clinical Cmax for an agent had not been determined, the highest concentration tested was 10 microM.
Cell Culture. All cells were maintained in an incubator at 37 degrees C and 5% CO2 with 95% humidity. The PDC lines were cultured according to standard operating procedures established by the NCI PDMR (https://pdmr.cancer.gov/sops/default.htm). All PDCs were thawed and cultured in Matrigel-coated flasks prepared with a working solution of 1X Ham's F-12 nutrient mix, without supplementation (Invitrogen, Waltham, MA, cat. 11765054), 100 U/mL penicillin-streptomycin (Invitrogen, cat. 15140122), and 2.5% Matrigel (Corning Inc., Corning, NY, cat. 354248) for the first three passages. The 354836-022-R-J1-PDC, 475296-252-R-J1-PDC, and 997726-040-R-J2-PDC lines were cultured in 6A media, which includes advanced DMEM/F-12 (Thermo Fisher Scientific, cat. 12634028), 10 mM HEPES (Thermo Fisher Scientific, cat. 15630080), 1X GlutaMAX supplement (Thermo Fisher Scientific, cat. 35050061), 0.1 mg/mL primocin (InvivoGen, San Diego, CA, cat. ant-pm-2), 10% defined fetal bovine serum, heat inactivated (HyClone Laboratories Inc., Logan, UT, cat. SH30070.03HI), 50% L-WRN conditioned media (ATCC, cat. CRL-3276), 1.25 mM N-Acetyl-L-cysteine (Sigma-Aldrich, cat. A9165), 10 mM nicotinamide (Sigma-Aldrich, cat. N0636), 1X B-27 supplement (Thermo Fisher Scientific, cat. 17504044), 1X N-2 supplement (Thermo Fisher Scientific, cat. 17502048), and 10 microM Y-27632 dihydrochloride (Tocris Bioscience, Bristol, United Kingdom, cat. 1254). The 624824-186-R-J2-PDC line was cultured in 6C/Colon 1B media, which includes all 6A media components plus 50 ng/mL human EGF recombinant protein (Thermo Fisher Scientific, cat. PHG0311). […]
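Note: spheroids exposed to compounds for seven days.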
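Throughout, for viability, T/C: 100% = DMSO vehicle control viability.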

Cn1cnc2c(F)c(Nc3ccc(Br)cc3Cl)c(C(=O)NOCCO)cc21 + Cc1nc(NC(=O)N2CCCC2C(N)=O)sc1-c1ccnc(C(C)(C)C(F)(F)F)c1
IC50 (curve of first compound, second compound 0.0316 µM): > 3 µM | IC50 (curve of first compound, second compound 0.1 µM): > 3 µM | IC50 (curve of first compound, second compound 0.316 µM): > 3 µM | IC50 (curve of first compound, second compound 1 µM): 2.79 µM | IC50 (curve of first compound, second compound 3.16 µM): 0.1 µM | IC50 (curve of first compound, second compound 10 µM): < 0.00949 µM | viability, T/C (second compound 0.0316 µM, first compound 0.00949 µM): 98.8% | viability, T/C (second compound 0.0316 µM, first compound 0.03 µM): 95.7% | viability, T/C (second compound 0.0316 µM, first compound 0.0949 µM): 95.7% | viability, T/C (second compound 0.0316 µM, first compound 0.3 µM): 98.7% | viability, T/C (second compound 0.0316 µM, first compound 0.949 µM): 98.6% | viability, T/C (second compound 0.0316 µM, first compound 3 µM): 81.5% | viability, T/C (second compound 0.1 µM, first compound 0.00949 µM): 105% | viability, T/C (second compound 0.1 µM, first compound 0.03 µM): 102% | viability, T/C (second compound 0.1 µM, first compound 0.0949 µM): 98% | viability, T/C (second compound 0.1 µM, first compound 0.3 µM): 107% | viability, T/C (second compound 0.1 µM, first compound 0.949 µM): 99.4% | viability, T/C (second compound 0.1 µM, first compound 3 µM): 83.7% | viability, T/C (second compound 0.316 µM, first compound 0.00949 µM): 109% | viability, T/C (second compound 0.316 µM, first compound 0.03 µM): 99.7% | viability, T/C (second compound 0.316 µM, first compound 0.0949 µM): 98.6% | viability, T/C (second compound 0.316 µM, first compound 0.3 µM): 100% | viability, T/C (second compound 0.316 µM, first compound 0.949 µM): 92.6% | viability, T/C (second compound 0.316 µM, first compound 3 µM): 70.9% | viability, T/C (second compound 1 µM, first compound 0.00949 µM): 84% | viability, T/C (second compound 1 µM, first compound 0.03 µM): 79.1% | viability, T/C (second compound 1 µM, first compound 0.0949 µM): 71.4% | viability, T/C (second compound 1 µM, first compound 0.3 µM): 76.5% | viability, T/C (second compound 1 µM, first compound 0.949 µM): 68.7% | viability, T/C (second compound 1 µM, first compound 3 µM): 48.4% | viability, T/C (second compound 3.16 µM, first compound 0.00949 µM): 55.3% | viability, T/C (second compound 3.16 µM, first compound 0.03 µM): 50.3% | viability, T/C (second compound 3.16 µM, first compound 0.0949 µM): 50.7% | viability, T/C (second compound 3.16 µM, first compound 0.3 µM): 47.5% | viability, T/C (second compound 3.16 µM, first compound 0.949 µM): 39.9% | viability, T/C (second compound 3.16 µM, first compound 3 µM): 32.8% | viability, T/C (second compound 10 µM, first compound 0.00949 µM): 32.2% | viability, T/C (second compound 10 µM, first compound 0.03 µM): 25.8% | viability, T/C (second compound 10 µM, first compound 0.0949 µM): 23% | viability, T/C (second compound 10 µM, first compound 0.3 µM): 24.3% | viability, T/C (second compound 10 µM, first compound 0.949 µM): 17.1% | viability, T/C (second compound 10 µM, first compound 3 µM): 10.4%

Cc1nc(NC(=O)N2CCCC2C(N)=O)sc1-c1ccnc(C(C)(C)C(F)(F)F)c1 (centres undefined)
viability, T/C (compound 0.0316 µM): 99.9% [middle of 8 runs] | viability, T/C (compound 0.1 µM): 97.5% [middle of 8 runs] | viability, T/C (compound 0.316 µM): 102% [middle of 8 runs] | viability, T/C (compound 1 µM): 90.6% [middle of 8 runs] | viability, T/C (compound 3.16 µM): 59.9% [middle of 8 runs] | viability, T/C (compound 10 µM): 36.2% [middle of 8 runs] | IC50 (compound alone, run of 04/24/2023): 4.93 µM [middle of 8 runs]

Reference: PubChem BioAssay AID1963982 (Molecular Pharmacology Branch, DTP, NCI, 2024)
